In US11014895B2, “Heterocyclic urea compound, and drug composition and application thereof” (CHINA PHARMACEUTICAL UNIVERSITY, priority 2017, dated 2021):

Tests used:
IDO1 enzyme = IDO1 enzyme (Homo sapiens, UniProt P14902); assay: Determination of biochemical activity of IDO1 enzyme (absorbance at 320 nm); settings: room temperature, 3 hours
How it was run: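 Enzyme and compound were reacted in sodium hydrogen phosphate buffer (pH 7-8) for 3 hours at room temperature. Absorbance at 320 nm gave inhibition rate, and IC50 was calculated from it.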

[1] = target: T1, IDO1 enzyme in the Hela cell (Homo sapiens, UniProt P14902); assay: Cell activity: interferon γ-stimulated Hela cells, absorbance of supernatant at 480 nm; assay type: cell-based; settings: interferon γ 100 ng/ml, 72 hours
T1 construct: endogenous in cells; host or cells: HeLa cells stimulated with interferon γ (100 ng/ml)
T1 sequence (P14902 whole entry): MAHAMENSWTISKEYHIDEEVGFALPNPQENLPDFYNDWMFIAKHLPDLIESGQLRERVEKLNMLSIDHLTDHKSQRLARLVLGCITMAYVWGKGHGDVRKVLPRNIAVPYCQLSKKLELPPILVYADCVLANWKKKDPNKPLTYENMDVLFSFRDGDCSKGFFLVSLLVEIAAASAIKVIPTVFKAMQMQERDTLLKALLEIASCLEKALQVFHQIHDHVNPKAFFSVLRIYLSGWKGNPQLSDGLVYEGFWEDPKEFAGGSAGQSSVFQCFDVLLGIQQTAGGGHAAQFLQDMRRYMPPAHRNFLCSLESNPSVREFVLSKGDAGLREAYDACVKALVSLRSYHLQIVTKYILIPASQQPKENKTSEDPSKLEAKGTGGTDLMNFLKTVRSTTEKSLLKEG
How it was run: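 HeLa cells treated with compound plus interferon γ (100 ng/ml final) and cultured 72 h at 37 °C. Supernatant treated with trichloroacetic acid 30 min at 50 °C, centrifuged, then mixed with 2% dimethylaminobenzaldehyde in acetic acid; absorbance read at 480 nm.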

Chain of IDO1 enzyme (P14902 whole entry): as above

Molecule `O=C(Nc1nonc1/C(=N/O)Nc1ccc(F)c(Br)c1)Nc1csc2ccccc12` [Embodiment 39, (Z)-1-(4-(N-(3-bromo-4-fluorophenyl)-N′-hydroxyaminoiminomethyl)-1,2,5-oxadiazole-3-substituted)-3-(benzothiophene-3-substituted)urea] has an IC50 (IDO1 enzyme) of 0.1 to 1 µM and an IC50 [1] of 0.1 to 1 µM.

`O=C(Nc1ccc(C(F)(F)F)cc1)Nc1nonc1/C(=N/O)Nc1ccc(F)c(Br)c1` [Embodiment 6, (Z)-1-(4-(N-(3-bromo-4-fluorophenyl)-N′-hydroxyaminoiminomethyl)-1,2,5-oxadiazole-3-substituted)-3-(4-trifluorotolyl)urea] was tested, and the IC50 (IDO1 enzyme) was greater than 1 µM and the IC50 [1] was greater than 1 µM.

`NCCNC(=O)Nc1conc1/C(=N/O)Nc1ccc(F)c(Br)c1` [Embodiment 111] was tested, and the IC50 (IDO1 enzyme) was less than 0.001 µM and the IC50 [1] was less than 0.001 µM.

With `CS(=O)(=O)NCCNC(=O)Nc1nocc1/C(=N/O)Nc1ccc(F)c(Br)c1` [Embodiment 93, (Z)-1-(4-(N-(3-bromo-4-fluorophenyl)-N′-hydroxyaminoiminomethyl)-isoxazole-3-substituted)-3-(2-methamidoethyl)urea] the IC50 (IDO1 enzyme) was less than 0.001 µM and the IC50 [1] was less than 0.001 µM.

`CCCNC(=O)Nc1cocc1/C(=N/O)Nc1ccc(F)c(Br)c1` [Embodiment 70, (Z)-1-(4-(N-(3-bromo-4-fluorophenyl)-N′-hydroxyaminoiminomethyl)-furan-3-substituted)-3-propylurea] was tested, and the IC50 (IDO1 enzyme) was 0.1 to 1 µM and the IC50 [1] was 0.1 to 1 µM.

With `O/N=C(\Nc1ccc(F)c(Br)c1)c1cocc1NC(=S)NC1CCCCC1` [Embodiment 138, (Z)-1-(4-(N-(3-bromo-4-fluorophenyl)-N′-hydroxyaminoiminomethyl)-furan-3-substituted)-3-cyclohexylthiourea] the IC50 (IDO1 enzyme) was 0.1 to 1 µM and the IC50 [1] was 0.1 to 1 µM.

`COc1ccc(NC(=N)Nc2nocc2/C(=N/O)Nc2ccc(F)c(Br)c2)cc1` [Embodiment 157, (Z)-1-(4-(N-(3-bromo-4-fluorophenyl)-N′-hydroxyaminoiminomethyl)-isoxazole-3-substituted)-3-(4-methoxyphenyl)guanidine] showed an IC50 (IDO1 enzyme) of 0.1 to 1 µM and an IC50 [1] of 0.1 to 1 µM.

`N=C(Nc1ccccc1)Nc1nonc1/C(=N/O)Nc1ccc(F)c(Br)c1` [Embodiment 140, (Z)-1-(4-(N-(3-bromo-4-fluorophenyl)-N′-hydroxyaminoiminomethyl)-1,2,5-oxadiazole-3-substituted)-3-phenylguanidine] gave an IC50 (IDO1 enzyme) of 0.1 to 1 µM and an IC50 [1] of 0.1 to 1 µM.

`N=C(Nc1nonc1/C(=N/O)Nc1ccc(F)c(Br)c1)NC1CCCC1` [Embodiment 146, (Z)-1-(4-(N-(3-bromo-4-fluorophenyl)-N′-hydroxyaminoiminomethyl)-1,2,5-oxadiazole-3-substituted)-3-cyclopentylguanidine] was tested, and the IC50 (IDO1 enzyme) was greater than 1 µM and the IC50 [1] was greater than 1 µM.

Molecule `Cc1ccc(NC(=O)Nc2nonc2/C(=N/O)Nc2ccc(F)c(Br)c2)cc1` [Embodiment 4] has an IC50 (IDO1 enzyme) greater than 1 µM and an IC50 [1] greater than 1 µM.

`N=C(Nc1ccccc1)Nc1nocc1/C(=N/O)Nc1ccc(F)c(Br)c1` [Embodiment 158, (Z)-1-(4-(N-(3-bromo-4-fluorophenyl)-N′-hydroxyaminoiminomethyl)-isoxazole-3-substituted)-3-phenylguanidine] was tested, and the IC50 (IDO1 enzyme) was 0.1 to 1 µM and the IC50 [1] was 0.1 to 1 µM.

With `O=C(Nc1nonc1/C(=N/O)Nc1ccc(F)cc1)NC1CCCCC1` [Embodiment 52, (Z)-1-(4-(N-(4-fluorophenyl)-N′-hydroxyaminoiminomethyl)-1,2,5-oxadiazole-3-substituted)-3-cyclohexylurea] the IC50 (IDO1 enzyme) was 0.1 to 1 µM and the IC50 [1] was 0.1 to 1 µM.

`O=C(Nc1nonc1/C(=N/O)Nc1ccc(F)cc1)NC1CCC(O)CC1` (stereo not drawn) [Embodiment 55] was tested, and the IC50 (IDO1 enzyme) was less than 0.001 µM and the IC50 [1] was less than 0.001 µM.

`O=C(Nc1cc[nH]c1)Nc1cocc1/C(=N/O)Nc1ccc(F)c(Br)c1` [Embodiment 76, (Z)-1-(4-(N-(3-bromo-4-fluorophenyl)-N′-hydroxyaminoiminomethyl)-furan-3-substituted)-3-(1H-pyrrole-3-substituted)urea] was tested, and the IC50 (IDO1 enzyme) was greater than 1 µM and the IC50 [1] was greater than 1 µM.

Work on `COc1ccc(NC(=O)Nc2nonc2/C(=N/O)Nc2ccc(F)c(Br)c2)cc1C(F)(F)F` [Embodiment 21, (Z)-1-(4-(N-(3-bromo-4-fluorophenyl)-N′-hydroxyaminoiminomethyl)-1,2,5-oxadiazole-3-substituted)-3-(4-methoxy-2-trifluoromethylphenyl)urea] yielded an IC50 (IDO1 enzyme) of 0.1 to 1 µM and an IC50 [1] of 0.1 to 1 µM.

With `O=C(Nc1cccnc1)Nc1nocc1/C(=N/O)Nc1ccc(F)c(Br)c1` [Embodiment 96, (Z)-1-(4-(N-(3-bromo-4-fluorophenyl)-N′-hydroxyaminoiminomethyl)-isoxazole-3-substituted)-3-(3-aminopyridine)urea] the IC50 (IDO1 enzyme) was 0.1 to 1 µM and the IC50 [1] was 0.1 to 1 µM.

In the case of `N=C(Nc1ccccc1)Nc1cocc1/C(=N/O)Nc1ccc(F)c(Br)c1` [Embodiment 161, (Z)-1-(4-(N-(3-bromo-4-fluorophenyl)-N′-hydroxyaminoiminomethyl)-furan-3-substituted)-3-phenylguanidine], the IC50 (IDO1 enzyme) is reported as 0.1 to 1 µM and the IC50 [1] is reported as 0.1 to 1 µM.

Molecule `O/N=C(\Nc1ccc(F)c(Br)c1)c1nonc1NC(=S)Nc1ccccc1` [Embodiment 116, (Z)-1-(4-(N-(4-bromo-3-fluorophenyl)-N′-hydroxyaminoiminomethyl)-1,2,5-oxadiazole-3-substituted)-3-phenylthiourea] has an IC50 (IDO1 enzyme) of 0.1 to 1 µM and an IC50 [1] of 0.1 to 1 µM.

In the case of `COc1ccc(NC(=O)Nc2nonc2/C(=N/O)Nc2ccc(F)c(Br)c2)c(F)c1` [Embodiment 20, (Z)-1-(4-(N-(3-bromo-4-fluorophenyl)-N′-hydroxyaminoiminomethyl)-1,2,5-oxadiazole-3-substituted)-3-(4-methoxy-2-fluorophenyl)urea], the IC50 (IDO1 enzyme) is reported as 0.1 to 1 µM and the IC50 [1] is reported as 0.1 to 1 µM.

`O=C(Nc1nonc1/C(=N/O)Nc1ccc(F)c(Br)c1)NC1CCC1` [Embodiment 31, (Z)-1-(4-(N-(3-bromo-4-fluorophenyl)-N′-hydroxyaminoiminomethyl)-1,2,5-oxadiazole-3-substituted)-3-cyclobutylurea] showed an IC50 (IDO1 enzyme) of 0.1 to 1 µM and an IC50 [1] of 0.1 to 1 µM.

`CC1CCC(NC(=O)Nc2nonc2/C(=N/O)Nc2ccc(F)c(Br)c2)CC1` (stereo not drawn) [Embodiment 9, (Z)-1-(4-(N-(3-bromo-4-fluorophenyl)-N′-hydroxyaminoiminomethyl)-1,2,5-oxadiazole-3-substituted)-3-(4-methylcyclohexyl)urea] gave an IC50 (IDO1 enzyme) greater than 1 µM and an IC50 [1] greater than 1 µM.

Work on `CS(=O)(=O)N1CCN(C(=O)Nc2nonc2/C(=N/O)Nc2ccc(F)cc2)CC1` [Embodiment 53] yielded an IC50 (IDO1 enzyme) of 0.1 to 1 µM and an IC50 [1] of 0.1 to 1 µM.

`O=C(Nc1nonc1/C(=N/O)Nc1ccc(F)c(Br)c1)N1CCOCC1` [Embodiment 49, (Z)-1-(4-(N-(3-bromo-4-fluorophenyl)-N′-hydroxyaminoiminomethyl)-1,2,5-oxadiazole-3-substituted)morpholine-1-carbamide] was tested, and the IC50 (IDO1 enzyme) was 0.1 to 1 µM and the IC50 [1] was 0.1 to 1 µM.

Molecule `O=C(Nc1nonc1/C(=N/O)Nc1ccc(F)c(Br)c1)NC1CCNCC1` [Embodiment 11, (Z)-1-(4-(N-(3-bromo-4-fluorophenyl)-N′-hydroxyaminoiminomethyl)-1,2,5-oxadiazole-3-substituted)-3-(piperidine-4-substituted)urea] has an IC50 (IDO1 enzyme) of less than 0.001 µM and an IC50 [1] of less than 0.001 µM.

For `O=C(Nc1nocc1/C(=N/O)Nc1ccc(F)c(Br)c1)Nc1cccc2[nH]ccc12` [Embodiment 94, (Z)-1-(4-(N-(3-bromo-4-fluorophenyl)-N′-hydroxyaminoiminomethyl)-isoxazole-3-substituted)-3-(4-aminoindole)urea], the IC50 (IDO1 enzyme) was 0.1 to 1 µM and the IC50 [1] was 0.1 to 1 µM.

`O=C(NCCO)Nc1nonc1/C(=N/O)Nc1ccc(F)c(Cl)c1` [Embodiment 28, (Z)-1-(4-(N-(3-chloro-4-fluorophenyl)-N′-hydroxyaminoiminomethyl)-1,2,5-oxadiazole-3-substituted)-3-(23-hydroxyethane)urea] was tested, and the IC50 (IDO1 enzyme) was less than 0.001 µM and the IC50 [1] was less than 0.001 µM.

For `O/N=C(\Nc1ccc(F)c(Br)c1)c1nonc1NC(=S)NC1CCNCC1` [Embodiment 124, (Z)-1-(4-(N-(3-bromo-4-fluorophenyl)-N′-hydroxyaminoiminomethyl)-1,2,5-oxadiazole-3-substituted)-3-(piperidine-4-substituted)thiourea], the IC50 (IDO1 enzyme) was less than 0.001 µM and the IC50 [1] was less than 0.001 µM.

Work on `COc1ccc(NC(=O)Nc2nonc2/C(=N/O)Nc2ccc(F)c(Cl)c2)cc1` [Embodiment 22, (Z)-1-(4-(N-(3-chloro-4-fluorophenyl)-N′-hydroxyaminoiminomethyl)-1,2,5-oxadiazole-3-substituted)-3-(4-methoxyphenyl)urea] yielded an IC50 (IDO1 enzyme) of 0.1 to 1 µM and an IC50 [1] of 0.1 to 1 µM.

With `CS(=O)(=O)N1CCN(C(=O)Nc2nonc2/C(=N/O)Nc2ccc(F)c(Br)c2)CC1` [Embodiment 50] the IC50 (IDO1 enzyme) was 0.1 to 1 µM and the IC50 [1] was 0.1 to 1 µM.

`COc1ccc(NC(=N)Nc2cocc2/C(=N/O)Nc2ccc(F)c(Br)c2)cc1` [Embodiment 160, (Z)-1-(4-(N-(3-bromo-4-fluorophenyl)-N′-hydroxyaminoiminomethyl)-furan-3-substituted)-3-(4-methoxyphenyl)guanidine] was tested, and the IC50 (IDO1 enzyme) was 0.1 to 1 µM and the IC50 [1] was 0.1 to 1 µM.

With `COc1ccc(NC(=O)Nc2nocc2/C(=N/O)Nc2ccc(F)c(Cl)c2)cc1` [Embodiment 97, (Z)-1-(4-(N-(3-chloro-4-fluorophenyl)-N′-hydroxyaminoiminomethyl)-isoxazole-3-substituted)-3-(4-methoxyphenyl)urea] the IC50 (IDO1 enzyme) was 0.1 to 1 µM and the IC50 [1] was 0.1 to 1 µM.

`O=C(Nc1ccoc1)Nc1cocc1/C(=N/O)Nc1ccc(F)c(Br)c1` [Embodiment 77] gave an IC50 (IDO1 enzyme) greater than 1 µM and an IC50 [1] greater than 1 µM.

For `O=C(Nc1nonc1/C(=N/O)Nc1ccc(F)c(Br)c1)Nc1c[nH]c2ccccc12` [Embodiment 37, (Z)-1-(4-(N-(3-bromo-4-fluorophenyl)-N′-hydroxyaminoiminomethyl)-1,2,5-oxadiazole-3-substituted)-3-(1H-indole-3-substituted)urea], the IC50 (IDO1 enzyme) was 0.1 to 1 µM and the IC50 [1] was 0.1 to 1 µM.
